# From PubChem BioAssay AID2202557 (NIEHS Division of Translational Toxicology (DTT))
# Activity calls are given as the source filed them. How the calls were made is not given here.
# Test system: in vitro micronucleus assay, mammalian cells
# Assay: In vitro micronucleus assay, summary data
row,Compound,outcome
1,CCCCCCOc1ccc(O)cc1,active; positive
2,NCP(=O)(O)O,inactive; negative
3,[Cl][In]([Cl])[Cl],active; positive
4,CCc1cccc(C)c1N(C(=O)CCl)C(C)COC (stereo unspecified),active; positive
5,CCOC(=O)C1=C[C@]2(CC)CCCN3CCc4c(n1c1ccccc41)[C@@H]32,active; positive
6,c1cc[n+]2c(c1)-c1cccc[n+]1CC2,active; positive
